Experiments:
[1] = system: ptosis réserpinique chez la souris; assay: Antagonism of reserpine-induced ptosis in the mouse (test A); format: in vivo; details: 60 min before reserpine i.p., ptosis score (RUBIN) 3 h after reserpine, pair of scores given
Procedure: L'activité psychopharmacologique et spécialement l'activité antidépressive des composés de formule I (dans lesquels R représente l'hydrogène ou le radical méthyle) est illustrée par le résultat des tests suivants : • A - Antagonisme du ptosis réserpinique chez la souris Le produit étudié (ou le.véhicule seul - gomme arabique et eau 1/1 - pour le lot témoin) est administré par intubation oesophagienne à des souris de sexe mâle, de souche OF1 IFFA CREDO de poids moyen 22 + 1 g, puis 60 minutes après traitement, tous les animaux reçoivent par voie intrapéritonéale 1 mg.kg de Réserpine base.
Le composé de l'exemple 1 et la quipazine prise comme référence, ont été administrés à raison de 40 mg.kg^-1 et le composé de l'exemple 2 à raison de 10 mg.kg^-1.
L'appréciation du ptosis (oeil gauche) est donnée selon la cotation de RUBIN et Coll. [J. Pharmacol. Exp. Ther. 120, 125-136 (195717 3 heures après l'administration de Réserpine.

[2] = system: stéréotypies induites par l'amphétamine; assay: Potentiation of amphetamine-induced stereotypies in the rat (test B); format: in vivo, rats SPRAGUE-DAWLEY; details: for B-Potentialisation des stéréotypies induites par l'amphétamine (score global sur 3 heures): global score over 3 h, printed as treated/control
Procedure: B - Potentialisation des stéréotypies induites par l'amphétamine
Ce test est effectué sur des rats SPRAGUE-DAWLEY de souche OFA, provenant de l'élevage IFFA CREDO et d'un poids moyen de 150 + 10 g.
Le protocole mis en oeuvre est celui préconisé par SIMON et CHERMAT [J. Pharmacol. (Paris) 3 (2) 235-238 (1972)]%. Le produit étudié (ou le véhicule seul pour le lot témoin) est administré par voie intrapéritonéale à raison de 5 mg.kg^-1.
Les résultats expriment le score global sur 3 heures.

[3] = system: comportement " muricide " chez le rat LONG-EVANS; assay: Antagonism of muricide behaviour in the LONG-EVANS rat (test C); format: in vivo; details: 5 mg.kg^-1 i.p., 60 min before the mouse is presented; percent decrease versus control group
Procedure: C - Antagonisme du comportement " muricide " chez le rat LONG-EVANS
Les animaux utilisés sont des rats de sexe mâle LONG-EVANS de souche pie-noire, en provenance de l'élevage IFFA CREDO, dont la période d'isolement dans des cages individuelles est supérieure à 6 mois. L'administration des composés (ou du véhicule pour les animaux de groupe de contrôle) est effectuée par voie intrapéritonéale à raison de 5 mg.kg ^1, 60 minutes avant la mise en présence d'une souris avec les rats isolés (n ≥ 8 ) .
Le.comportement classiquement décrit comme " muricide " /VALZELLI L. - Actualités Pharmacologiques, 24, 133-152, (1971)] est positif si le rat tue la souris en un temps inférieur ou égal à 3 minutes.
Les résultats sont exprimés en pourcentage de diminution par rapport à celui du groupe des animaux de contrôle.

[4] = Estimated oral LD50 in the mouse; details: in vivo, estimate, read-out: Evaluation DL 50
From the text: Dans ce tableau, on indique en outre une estimation de la DL 50 des composés par voie orale chez la souris.

[5] = 40 mg.kg^-1 oral (oesophageal intubation)
[6] = 5 mg.kg^-1 i.p., percent increase of global score over control

## Cc1cc2occc2c(N2CCNCC2)n1 [EXEMPLE 1, 6-methyl-4-(l-piperazinyl)-furo [3,2-c] pyridine]
[1]; [5]
  A-Activité anti-réserpinique vis-à-vis du ptosis: 13 / 23
[2]; 5 mg.kg^-1 i.p.
  B-Potentialisation des stéréotypies induites par l'amphétamine (score global sur 3 heures): 118/95
[2]; [6]
  B-Potentialisation des stéréotypies induites par l'amphétamine: 24,2%
[3]
  C-Antagonisme du comportement muricide: 90%
[4]
  LD50: 250 mg/kg

## c1cc2occc2c(N2CCNCC2)n1 [EXEMPLE 2, 4-(l-piperazinyl)-furo [3,2-c] pyridine]
[1]; 10 mg.kg^-1 oral (oesophageal intubation)
  A-Activité anti-réserpinique vis-à-vis du ptosis: 15 / 22
[2]; 5 mg.kg^-1 i.p.
  B-Potentialisation des stéréotypies induites par l'amphétamine (score global sur 3 heures): 129/114
[2]; [6]
  B-Potentialisation des stéréotypies induites par l'amphétamine: 13,2%
[3]
  C-Antagonisme du comportement muricide: 74%
[4]
  LD50: 200 mg/kg

## c1ccc2nc(N3CCNCC3)ccc2c1 [QUIPAZINE, quipazine, reference compound]
[1]; [5]
  A-Activité anti-réserpinique vis-à-vis du ptosis: 14 / 23
[2]; even at 20 I P
  B-Potentialisation des stéréotypies induites par l'amphétamine: Inactif même à 20 I P
[3]
  C-Antagonisme du comportement muricide: 64,7%
[4]
  LD50: 233 to 376 mg/kg

— EP0041891A1, “6-Methyl-4-(1-piperazinyl)-furo(3,2-c)pyridines, process for their preparation and their therapeutic use” (RIOM LABORATOIRES- C.E.R.M. (Société Anonyme), priority 1980, dated 1981)
